In US7368578B2, “Five-membered heterocyclic compounds” (Takeda Pharmaceutical Company Limited, priority 2002, dated 2008) one finds melting point data, which are given here for 24 molecules.

As usually defined, the melting point is the temperature, or range, at which the solid turns liquid.

SMILES strings stand for the structures.

`COc1cc(COc2nn(-c3ccccc3)cc2/C=C/c2nc(N3CCOCC3)sc2C)ccc1OCc1nc(-c2cccc(C(=O)O)c2)oc1C` [Example 310, 3-[4-({2-methoxy-4-[({4-[(E)-2-(5-methyl-2-morpholin-4-yl-1,3-thiazol-4-yl)ethenyl]-1-phenyl-1H-pyrazol-3-yl}oxy)methyl]phenoxy)methyl)-5-methyl-1,3-oxazol-2-yl]benzoic acid]: the melting point is 215 to 217 °C (dec.).

`CCOC(=O)/C=C/c1nc(COc2ccc(COc3nn(-c4ccccc4)cc3C=O)cc2OC)c(C)o1` [Example 313, ethyl (2E)-3-{4-[(4-{[(4-formyl-1-phenyl-1H-pyrazol-3-yl)oxy]methyl}-2-methoxyphenoxy)methyl]-5-methyl-1,3-oxazol-2-yl}-2-propenoate] came in with a melting point of 150 to 151 °C.

`COC(=O)c1cc(-c2nc(COc3ccc(COc4nn(-c5ccccc5)cc4C=O)cc3OC)c(C)o2)ccc1C` [Example 319, methyl 5-{4-[(4-{[(4-formyl-1-phenyl-1H-pyrazol-3-yl)oxy]methyl}-2-methoxyphenoxy)methyl]-5-methyl-1,3-oxazol-2-yl}-2-methylbenzoate] returned a melting point of 195 to 196 °C.

For the molecule `CCOC(=O)/C=C/c1nc(COc2ccc(COc3nn(-c4ccccc4)cc3/C=C/c3csc(CC)n3)cc2OC)c(C)o1` [Example 322 (E form), ethyl (2E)-3-[4-({4-[({4-[(E)-2-(2-ethyl-1,3-thiazol-4-yl)ethenyl]-1-phenyl-1H-pyrazol-3-yl}oxy)methyl]-2-methoxyphenoxy}methyl)-5-methyl-1,3-oxazol-2-yl]-2-propenoate], the melting point fell in the range of 95 to 96 °C.

Consider `CCOC(=O)/C=C/c1nc(COc2ccc(COc3nn(-c4ccccc4)cc3/C=C\c3csc(CC)n3)cc2OC)c(C)o1` [Example 322 (Z form), ethyl (2E)-3-[4-({4-[({4-[(Z)-2-(2-ethyl-1,3-thiazol-4-yl)ethenyl]-1-phenyl-1H-pyrazol-3-yl}oxy)methyl]-2-methoxyphenoxy}methyl)-5-methyl-1,3-oxazol-2-yl]-2-propenoate], for which the melting point was in the range of 119 to 120 °C.

In turn, `CCc1nc(/C=C/c2cn(-c3ccccc3)nc2OCc2ccc(OCc3nc(/C=C/C(=O)O)oc3C)c(OC)c2)cs1` [Example 323, (2E)-3-[4-({4-[({4-[(E)-2-(2-ethyl-1,3-thiazol-4-yl)ethenyl]-1-phenyl-1H-pyrazol-3-yl}oxy)methyl]-2-methoxyphenoxy}methyl)-5-methyl-1,3-oxazol-2-yl]-2-propenoic acid] had a melting point of 125 to 126 °C.

Regarding `CCOC(=O)C1CCN(c2nc(COc3ccc(COc4nn(-c5ccccc5)cc4C=O)cc3OC)c(C)s2)CC1` [Example 324, ethyl 1-(4-[(4-{[(4-formyl-1-phenyl-1H-pyrazol-3-yl)oxy]methyl}-2-methoxyphenoxy)methyl]-5-methyl-1,3-thiazol-2-yl}piperidine-4-carboxylate], the melting point lay within 126 to 127 °C.

In turn, `CCOC(=O)c1ccc(-c2nc(COc3ccc(COc4nn(-c5ccccc5)cc4C=O)cc3OC)c(C)o2)s1` [Example 327, ethyl 5-{4-[(4-{[(4-formyl-1-phenyl-1H-pyrazol-3-yl)oxy]methyl}-2-methoxyphenoxy)methyl]-5-methyl-1,3-oxazol-2-yl}thiophene-2-carboxylate] had a melting point of 156 to 157 °C.

For the molecule `CCOC(=O)c1ccc(-c2nc(COc3ccc(COc4nn(-c5ccccc5)cc4/C=C/c4csc(CC)n4)cc3OC)c(C)o2)s1` [Example 330 (E form), ethyl 5-[4-({4-[({4-[(E)-2-(2-ethyl-1,3-thiazol-4-yl)ethenyl]-1-phenyl-1H-pyrazol-3-yl}oxy)methyl]-2-methoxyphenoxy}methyl)-5-methyl-1,3-oxazol-2-yl]thiophene-2-carboxylate], the melting point is 145 to 146 °C.

As for `CCOC(=O)c1ccc(-c2nc(COc3ccc(COc4nn(-c5ccccc5)cc4/C=C\c4csc(CC)n4)cc3OC)c(C)o2)s1` [Example 330 (Z form), ethyl 5-[4-({4-[({4-[(Z)-2-(2-ethyl-1,3-thiazol-4-yl)ethenyl]-1-phenyl-1H-pyrazol-3-yl}oxy)methyl]-2-methoxyphenoxy}methyl)-5-methyl-1,3-oxazol-2-yl]thiophene-2-carboxylate], the melting point lay within 118 to 119 °C.

In the case of `CCc1nc(/C=C/c2cn(-c3ccccc3)nc2OCc2ccc(OCc3nc(-c4ccc(C(=O)O)s4)oc3C)c(OC)c2)cs1` [Example 331, 5-[4-({4-[({4-[(E)-2-(2-ethyl-1,3-thiazol-4-yl)ethenyl]-1-phenyl-1H-pyrazol-3-yl}oxy)methyl]-2-methoxyphenoxy}methyl)-5-methyl-1,3-oxazol-2-yl]thiophene-2-carboxylic acid], the melting point was in the range of 150 to 151 °C.

For the molecule `COc1cc(COc2nn(-c3ccccc3)cc2C=O)ccc1OCc1nc(-c2cccc(C#N)c2)oc1C` [Example 332, 3-{4-[(4-{[(4-formyl-1-phenyl-1H-pyrazol-3-yl)oxy]methyl)-2-methoxyphenoxy}methyl]-5-methyl-1,3-oxazol-2-yl}benzonitrile], the melting point was in the range of 161 to 162 °C.

In the case of `CCOC(=O)Cc1ccc(-c2nc(COc3ccc(COc4nn(-c5ccccc5)cc4/C=C/c4csc(CC)n4)cc3OC)c(C)o2)cc1` [Example 338, ethyl {4-[4-({4-[({4-[(E)-2-(2-ethyl-1,3-thiazol-4-yl)ethenyl]-1-phenyl-1H-pyrazol-3-yl}oxy)methyl]-2-methoxyphenoxy}methyl)-5-methyl-1,3-oxazol-2-yl]phenyl}acetate], the melting point lay within 140 to 141 °C.

Take `CCOC(=O)Cc1ccc(-c2nc(COc3ccc(COc4nn(-c5ccccc5)cc4/C=C\c4csc(CC)n4)cc3OC)c(C)o2)cc1` [Example 338, ethyl {4-[4-({4-[({4-[(Z)-2-(2-ethyl-1,3-thiazol-4-yl)ethenyl]-1-phenyl-1H-pyrazol-3-yl}oxy)methyl]-2-methoxyphenoxy}methyl)-5-methyl-1,3-oxazol-2-yl]phenyl}acetate]: the melting point was 136 to 137 °C.

The molecule `CCOC(=O)Cc1ccc(-c2nc(COc3ccc(COc4nn(-c5ccccc5)cc4/C=C/c4cncn4CC)cc3OC)c(C)o2)cc1` [Example 340, ethyl {4-[4-({4-[({4-[(E)-2-(1-ethyl-1H-imidazol-5-yl)ethenyl]-1-phenyl-1H-pyrazol-3-yl}oxy)methyl]-2-methoxyphenoxy)methyl)-5-methyl-1,3-oxazol-2-yl]phenyl}acetate] yielded a melting point of 134 to 135 °C.

As to `CCOC(=O)Cc1ccc(-c2nc(COc3ccc(COc4nn(-c5ccccc5)cc4/C=C\c4cncn4CC)cc3OC)c(C)o2)cc1` [Example 340, ethyl {4-[4-({4-[({4-[(Z)-2-(1-ethyl-1H-imidazol-5-yl)ethenyl]-1-phenyl-1H-pyrazol-3-yl}oxy)methyl]-2-methoxyphenoxy}methyl)-5-methyl-1,3-oxazol-2-yl]phenyl}acetate], the melting point is 85 to 86 °C.

The molecule `CCOC(=O)Cc1ccc(-c2nc(COc3ccc(COc4nn(-c5ccccc5)cc4/C=C/c4cn(CC)cn4)cc3OC)c(C)o2)cc1` [Example 343, ethyl (4-{4-[(4-[({4-[(E)-2-(1-ethyl-1H-imidazol-4-yl)ethenyl]-1-phenyl-1H-pyrazol-3-yl}oxy)methyl]-2-methoxyphenoxy)methyl]-5-methyl-1,3-oxazol-2-yl}phenyl)acetate] displayed a melting point of 140 to 141 °C.

The molecule `CCOC(=O)Cc1ccc(-c2nc(COc3ccc(COc4nn(-c5ccccc5)cc4/C=C\c4cnn(CC)c4)cc3OC)c(C)o2)cc1` [Example 346, ethyl {4-[4-({4-[({4-[(Z)-2-(1-ethyl-1H-pyrazol-4-yl)ethenyl]-1-phenyl-1H-pyrazol-3-yl}oxy)methyl]-2-methoxyphenoxy}methyl)-5-methyl-1,3-oxazol-2-yl]phenyl}acetate] returned a melting point of 140 to 141 °C.

In the case of `COc1cc(CN(C)c2nn(-c3ccccc3)cc2C=O)ccc1OCc1nc(-c2ccco2)oc1C` [Example 349, 3-([4-{[2-(2-furyl)-5-methyl-1,3-oxazol-4-yl]methoxy}-3-methoxybenzyl](methyl)amino)-1-phenyl-1H-pyrazole-4-carbaldehyde], the melting point was in the range of 101 to 102 °C.

As for `CCOC(=O)Cc1ccc(-c2nc(COc3ccc(COc4nn(-c5ccccc5)cc4/C=C/c4csc(C)n4)cc3OC)c(C)o2)cc1` [Example 356, ethyl {4-[4-({2-methoxy-4-[({4-[(E)-2-(2-methyl-1,3-thiazol-4-yl)ethenyl]-1-phenyl-1H-pyrazol-3-yl}oxy)methyl]phenoxy}methyl)-5-methyl-1,3-oxazol-2-yl]phenyl}acetate], the melting point lay within 153 to 155 °C.

`CCOC(=O)Cc1ccc(-c2nc(COc3ccc(COc4nn(-c5ccccc5)cc4/C=C/c4csc(C(C)C)n4)cc3OC)c(C)o2)cc1` [Example 360, ethyl {4-[4-({4-[({4-[(E)-2-(2-isopropyl-1,3-thiazol-4-yl)ethenyl]-1-phenyl-1H-pyrazol-3-yl}oxy)methyl]-2-methoxyphenoxy}methyl)-5-methyl-1,3-oxazol-2-yl]phenyl}acetate]: the melting point lay in the range of 89 to 90 °C.

As to `CCOC(=O)Cc1ccc(-c2nc(COc3ccc(COc4nn(-c5ccccc5)cc4/C=C\c4csc(C(C)C)n4)cc3OC)c(C)o2)cc1` [Example 360, ethyl {4-[4-({4-[({4-[(Z)-2-(2-isopropyl-1,3-thiazol-4-yl)ethenyl]-1-phenyl-1H-pyrazol-3-yl}oxy)methyl]-2-methoxyphenoxy}methyl)-5-methyl-1,3-oxazol-2-yl]phenyl}acetate], the melting point is 126 to 127 °C.

As to `COc1cc(COc2nn(-c3ccccc3)cc2/C=C/c2csc(CO)n2)ccc1OCc1nc(-c2ccc(CC(=O)O)cc2)oc1C` [Example 365, (4-{4-[(4-{[(4-{(E)-2-[2-(hydroxymethyl)-1,3-thiazol-4-yl]ethenyl}-1-phenyl-1H-pyrazol-3-yl)oxy]methyl}-2-methoxyphenoxy)methyl]-5-methyl-1,3-oxazol-2-yl}phenyl)acetic acid], the melting point was 204 to 205 °C.

Consider `CCOC(=O)Cc1ccc(-c2nc(COc3ccc(COc4nn(-c5ccccc5)cc4/C=C/c4coc(CC)n4)cc3OC)c(C)o2)cc1` [Example 366, ethyl {4-[4-({4-[({4-[(E)-2-(2-ethyl-1,3-oxazol-4-yl)ethenyl]-1-phenyl-1H-pyrazol-3-yl}oxy)methyl]-2-methoxyphenoxy}methyl)-5-methyl-1,3-oxazol-2-yl]phenyl}acetate], for which the melting point was 155 to 157 °C.
